Assays:
[1] = test system: HEK-293T; assay: Cytotoxicity against HEK293T cells assessed as reduction in cell viability at 10 uM measured after 24 hrs by WST-1 assay; type: toxicity, cell-based; conditions: human
[2] = target: T1, Protein mono-ADP-ribosyltransferase PARP16 (Homo sapiens, UniProt Q8N5Y8); assay: Inhibition of human PARP16
T1 sequence (Q8N5Y8 whole entry): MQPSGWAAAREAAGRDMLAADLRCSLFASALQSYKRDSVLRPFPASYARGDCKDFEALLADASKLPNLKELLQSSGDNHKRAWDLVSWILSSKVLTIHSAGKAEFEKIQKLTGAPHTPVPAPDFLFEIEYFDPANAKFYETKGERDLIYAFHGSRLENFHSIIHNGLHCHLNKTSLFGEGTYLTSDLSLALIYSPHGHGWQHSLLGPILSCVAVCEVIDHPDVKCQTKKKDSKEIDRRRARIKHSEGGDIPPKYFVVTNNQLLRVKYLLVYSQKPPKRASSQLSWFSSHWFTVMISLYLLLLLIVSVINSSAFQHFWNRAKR

For `NC(=O)c1ccc(OCC2CCC2)cc1`, the Activity [1] was “Non-Toxic” and the IC50 [2] was greater than 10 µM.

— ChEMBL document CHEMBL5120855, “Potent 2,3-dihydrophthalazine-1,4-dione derivatives as dual inhibitors for mono-ADP-ribosyltransferases PARP10 and PARP15” (Eur J Med Chem, 2022)
